The results in this text go back to ChEMBL document CHEMBL4265941, “Side effects of methotrexate therapy for rheumatoid arthritis: A systematic review” (Eur J Med Chem, 2018).

Common to all, as to format: ADME, organism-based
Series [1] in a line: Tmax in RA patient at 7.5 to 25 mg, po. Conditions: human, in vivo.
A short description of series [2]: Tmax in RA patient at 7.5 to 25 mg, im. The following applies: human, in vivo.
Series [3] in a line: Oral bioavailability in human. The following applies: in vivo.

With `CN(Cc1cnc2nc(N)nc(N)c2n1)c1ccc(C(=O)N[C@@H](CCC(=O)O)C(=O)O)cc1` [METHOTREXATE], the Tmax in series [1] worked out at 1.5 h; in series [2], 1.3 h. In series [3], this compound gave a bioavailability of 50 to 80%.

For orientation: Tmax means the time from dosing to the highest level. A word on the bioavailability: it is the share of a dose that reaches the circulation, judged against a reference dose that is usually intravenous. Low readings indicate little systemic uptake, high ones much systemic uptake.
